In patent publication US20140221499A1, “NOVEL RODENT CONTROL AGENTS AND USES THEREOF” (priority 2011, published 2014):

Legend:
olfactory TAARs = assay: TAAR reporter gene assay, panel of mouse and rat TAARs in HEK293 cells; type: cell-based; conditions: mouse and rat TAARs
From the text: Here, we set out to identify agonists for additional mouse and rat TAARs. We examined odor response profiles using a previously established reporter gene assay based on cAMP-dependent odor transduction in olfactory sensory neurons (40, 42). Briefly, TAAR plasmids were transfected into HEK293 cells along with a cAMP-dependent reporter gene encoding secreted alkaline phosphatase (CRE-SEAP). TAARs were expressed both in unmodified form and as fusion proteins with an N-terminal sequence of bovine rhodopsin (‘Rho tag’) that promotes cell surface expression of some chemosensory receptors (35). Transfected cells were incubated with test chemicals, and phosphatase activity was quantified with a fluorescent substrate as a reporter for TAAR activation. In initial experiments, we tested 38 different odorant mixtures containing 244 structurally diverse test chemicals (2-5 μM) for the ability to activate each mTAAR. Subsequently, we tested 73 amines that included known mTAAR agonists and related chemicals for the ability to activate each rTAAR.
TAAR functional assays. Full Taar coding regions were cloned into pcDNA3.1-(Invitrogen) with or without a 5′ DNA extension of 69 bp encoding the first 20 amino acids of bovine rhodopsin followed by a cloning linker ([…]). Point mutations were introduced in mTAAR7e and mTAAR7f by overlap extension PCR. Functional assays were performed as described (40, 42). Fluorescence was measured on an EnVision plate reader (Perkin Elmer) and SEAP activity graphed as relative fluorescence of a phosphatase substrate.

mouse TAAR4 = target: T1, mouse TAAR4 (Mus musculus, UniProt Q5QD15); assay: TAAR4 CRE-SEAP reporter gene assay in transfected HEK293 cells; type: cell-based; conditions: concentration series of pure chemicals
T1 construct: Full Taar coding regions were cloned into pcDNA3.1-(Invitrogen); expressed in transfected cells; host or cells: HEK293
T1 sequence (Q5QD15 1-347): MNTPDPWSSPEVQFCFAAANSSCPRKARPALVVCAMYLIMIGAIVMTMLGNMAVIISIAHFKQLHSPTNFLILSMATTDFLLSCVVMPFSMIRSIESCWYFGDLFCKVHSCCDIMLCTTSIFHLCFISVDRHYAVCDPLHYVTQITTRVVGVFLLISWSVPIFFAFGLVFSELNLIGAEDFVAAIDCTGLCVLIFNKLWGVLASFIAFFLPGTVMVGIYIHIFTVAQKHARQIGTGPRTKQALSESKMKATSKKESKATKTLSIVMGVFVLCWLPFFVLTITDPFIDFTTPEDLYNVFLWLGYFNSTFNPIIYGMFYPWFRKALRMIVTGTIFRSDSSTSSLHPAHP
Method: HEK293 cells were co-transfected with TAAR expression plasmids and a cAMPdependent reporter gene encoding secreted alkaline phosphatase (CRE-SEAP). Transfected cells were incubated with urine extracts from different mammalian species, and phosphatase activity was quantified with a fluorescent substrate as a reporter for TAAR activation.
Test urines were diluted in serum-free media containing penicillin G (100 Units/ml, Invitrogen) and streptomycin sulfate (100 mg/ml, Invitrogen). SEAP activity is measured as fluorescence resulting from dephosphorylation of a substrate, 4-methylumbelliferyl phosphate. Fluorescence values were obtained using an EnVision plate reader (Perkin Elmer) and are reported directly without normalization.

[1] = tested on: corticosterone levels in rat plasma; assay: Plasma corticosterone assay after odor exposure; type: in vivo; conditions: 30 min exposure, 10% amine or 2% TMT, 1 ml, ±SEM
Method: Avoidance to 2-phenylethylamine in rats was associated with acute changes in circulating levels of the stress hormone corticosterone.
Plasma corticosterone assay. […] Corticosterone levels were measured in duplicate using a competitive radioactive binding assay as described previously (Pryce C R, Bettschen D, Bahr N I, & Feldon J (2001) Comparison of the effects of infant handling, isolation, and nonhandling on acoustic startle, prepulse inhibition, locomotion, and HPA activity in the adult rat. Behav Neurosci 115(1):71-83).

[2] = tested on: mouse olfactory sensory neurons; assay: Confocal calcium imaging of olfactory sensory neurons in tissue slices; type: cell-based; conditions: dorsal olfactory epithelium
Method: The mammalian olfactory system encodes odor identity using combinations of olfactory receptors (11). […] Here, we used a confocal imaging strategy to record cytosolic calcium transients of single sensory neurons in real time. Viability of analyzed neurons was determined after odor exposures by KCl-induced depolarization.
Confocal calcium imaging of olfactory sensory neurons in tissue slices. Recordings were performed as described (Spehr M, et al. (2006) Essential role of the main olfactory system in social recognition of major histocompatibility complex peptide ligands. J Neurosci 26(7):1961-1970) with the following modifications. For calcium sensitive dye loading, slices of olfactory epithelium were incubated (30 min, 4° C.) in HEPES solution (in mM: 145 NaCl, 5 KCl, 1 CaCl2, 1 MgCl2, 10 HEPES; pH=7.3) containing Fluo-4/AM (2 μM; Molecular Probes). Slices were transferred to a recording chamber (Slice Mini Chamber, Luigs & Neumann, Ratingen, Germany) and visualized using a Leica DM6000CFS confocal fixed stage upright microscope (Leica Microsystems, Mannheim, Germany) equipped with an apochromatic water immersion objective (HC X APO L20x/1.0 W) and infrared-optimized differential interference contrast (DIC) optics. Slices were anchored via stainless steel wires with 0.1 mm lycra threads and continuously superfused with HEPES-buffered solution. Changes in cytosolic calcium were monitored over time at 1.0 Hz frame rate. Stimulus application as well as solution exchange during inter-stimulus intervals was achieved by a custom-made, pressure-driven focal application device consisting of a software-controlled valve bank connected to a 7-in-1 ‘perfusion pencil’. Rhodamine application controlled for uniform flow and even stimulus application throughout the epithelial sensory surface. Offline analysis of time-lapse experiments was performed using LAS-AF software (Leica). All cells in a given field of view were marked as individual regions of interest (ROIs), and the relative fluorescence intensity for each ROI was calculated and processed as a function of time.

Sprague-Dawley rats = assay: Open field odor avoidance; type: in vivo, rat; conditions: ten minute exposure, 12 animals ±SEM; 1 ml urine or 5 μl amine
Method: We next examined behavioral responses of rodents to 2-phenylethylamine. […] Behaviors of rats in a square-shaped arena were recorded and analyzed following placement of test stimuli in a pseudorandom corner (FIG. 5A). […] Thus, 2-phenylethylamine, in the absence of other predator odor cues, was sufficient to evoke rat avoidance behavior.
Open field behavioral analysis. Rat behavioral responses to odors in the open field were measured as described previously (Fendt M (2006) Exposure to urine of canids and felids, but not of herbivores, induces defensive behavior in laboratory rats. Journal of chemical ecology 32(12):2617-2627) with the following modifications. Adult Sprague-Dawley rats (240-340 g; Janvier, Le Genest St. Isle, France) were placed in the center of a 45 cm×45 cm Plexiglass arena (TSE Systems, Bad Homburg, Germany) equipped with infrared sensors (distance 14 mm, illumination 80-120 lux). The arena contained glass dishes (36 mm) in each corner, with one dish containing test stimuli. Prior to testing, animals were habituated to the arena by introducing them for three consecutive days. […] Location of the rats was automatically recorded using the infrared detectors and analyzed (TSE Systems software). Statistical significance was measured using Wilcoxon Signed Test (**p<0.01; comparison with chance level (25%)). […]

mouse TAAR3 = target: T2, mouse TAAR3 (Mus musculus, UniProt Q5QD16); assay: TAAR3 CRE-SEAP reporter gene assay in transfected HEK293 cells; type: cell-based
T2 construct: Full Taar coding regions were cloned into pcDNA3.1-(Invitrogen); expressed in transfected cells; host or cells: HEK293
T2 sequence (Q5QD16 1-343): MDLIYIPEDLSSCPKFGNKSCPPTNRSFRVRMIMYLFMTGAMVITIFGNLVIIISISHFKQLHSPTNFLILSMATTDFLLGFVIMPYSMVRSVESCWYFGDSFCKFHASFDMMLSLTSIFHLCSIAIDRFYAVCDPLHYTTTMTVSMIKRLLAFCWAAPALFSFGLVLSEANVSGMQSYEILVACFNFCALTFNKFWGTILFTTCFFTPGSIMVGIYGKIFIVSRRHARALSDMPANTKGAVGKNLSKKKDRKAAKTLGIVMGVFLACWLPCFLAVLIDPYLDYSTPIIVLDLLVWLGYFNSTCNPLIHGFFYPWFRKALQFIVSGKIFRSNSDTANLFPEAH
Method: Reporter gene assays were performed on HEK293 cells transfected with mouse TAAR3 and CRE-SEAP.
TAAR functional assays. Reporter gene assays were performed as described (Liberles S D & Buck LB (2006) A second class of chemosensory receptors in the olfactory epithelium. Nature 442(7103):645-650) with the following minor modifications. Test urines were diluted in serum-free media containing penicillin G (100 Units/ml, Invitrogen) and streptomycin sulfate ([…], Invitrogen). SEAP activity is measured as fluorescence resulting from dephosphorylation of a substrate, 4-methylumbelliferyl phosphate. Fluorescence values were obtained using an EnVision plate reader (Perkin Elmer) and are reported directly without normalization. All TAARs, except mouse TAAR3, were expressed as fusion proteins with an N-terminal sequence of bovine rhodopsin (Krautwurst D, Yau K W, & Reed R R (1998) Identification of ligands for olfactory receptors by functional expression of a receptor library. Cell 95(7):917-926).

CN1CCCCC1 [1-methylpiperidine, N-methylpiperidine]
TAAR activation (olfactory TAARs): activated TAARs

OCCc1ccccc1 [2-phenylethanol]
TAAR4 activation (mouse TAAR4): did not activate TAAR4 at any concentration tested

NCCCc1ccccc1 [3-phenylpropylamine]
TAAR4 activation (mouse TAAR4): activates TAAR4 at high concentrations

CCCCN(C)C [N,N-dimethylbutylamine]
TAAR activation (olfactory TAARs): activated TAARs

CCCCCCCCN(C)C [N,N-dimethyloctylamine]
TAAR activation (olfactory TAARs): activated TAARs

CC1=NC(C)SC1C (stereo not shown) [TMT, 2,5-dihydro-2,4,5-trimethylthiazole]
plasma levels of corticosterone [1]: 238 ± 21 ng/mL

NCc1ccccc1 [benzylamine, reference compound]
TAAR4 activation (mouse TAAR4): did not similarly activate TAAR4 | carnivore odor-selective neurons activated by 2-phenylethylamine that also responded to benzylamine [2]: 0/1268 | percentage of time rats are located in the odor quadrant (Sprague-Dawley rats): 29±7.2% | EC50 (mouse TAAR3): ~200 µM | plasma levels of corticosterone [1]: 130 ± 32 ng/mL

NC1CCCCC1 [cyclohexylamine]
TAAR activation (olfactory TAARs): activated TAARs

CC(C)CCN [isoamylamine]
TAAR3 detection (mouse TAAR3): preferred ligand | TAAR activation (olfactory TAARs): activated TAARs

COc1ccc2[nH]cc(CCN(C)C)c2c1 [ligand 7, 5-methoxy-N,N-dimethyltryptamine]
TAAR activation (olfactory TAARs): activated different TAAR7 paralogs

CCCCNC [methylbutylamine]
TAAR activation (olfactory TAARs): activated TAARs
